The values below come from patent publication US20250339569A1, “CARBONIC ANHYDRASE IX LIGANDS” (priority 2021, published 2025).

Molecules are shown by their SMILES. Starred links: 1 amine or outer side, 2 acyl side, 3 side chain; linkers in the order of their positions; H or OH if unused. Positions of bridges follow the written chain, without caps; N, C: chain ends. Non-standard residues stand in square brackets, D forms with d. Residues, ends and D or L forms follow the SMILES beside them. *: point of attachment. NH(CH2)3NH(O2Oc(DOTA)) = O=C(O)CN1CCN(CC(=O)O)CCN(CC(=O)NCCOCCOCC(=O)NCCCN*)CCN(CC(=O)O)CC1; X3 = O=C(O)CN1CCN(CC(=O)O)CCN(CC(=O)NCCCOCCOCCOCCCN*)CCN(CC(=O)O)CC1; DOTA = O=C(O)CN1CCN(CC(=O)O)CCN(CC(=O)*)CCN(CC(=O)O)CC1; Trp(5-OH) = N[C@@H](Cc1c[nH]c2ccc(O)cc12)C(=O)O; Cyclopropanecarbonyl(1-CN) = N#CC1(C(=O)*)CC1; X7 = O=C([C@H](Cc1cccc(N[*:3])c1)N[*:1])[*:2]; Phe(4-NH2) = Nc1ccc(C[C@H](N)C(=O)O)cc1; X55 = O=C1Nc2ccc(C(=O)*)cc2S(=O)(=O)N1; mXylylene = c1cc(C[*:1])cc(C[*:2])c1; X2 = O=C(CN1CCC(N[*:1])CC1)[*:2]; Aic = NC1(C(=O)O)Cc2ccccc2C1; Suc = O=C(CCC(=O)[*:2])[*:1]; Isovaleryl = CC(C)CC(=O)*; X64 = c1cc2cc(CN*)ccc2cn1; Thp = NC1(C(=O)O)CCOCC1; Bz = O=C(c1ccccc1)*; Sar = CNCC(=O)O

The first assay deals with T1, CAIX-expressing human HT-29 colorectal cancer cells (Homo sapiens, UniProt Q16790).
T1 construct: CAIX-expressing human HT-29 colorectal cancer cells; host or cells: HT-29 human colorectal cancer cells
The assay can be described thus: FACS binding assay (IC50 determination, competition with tracer 3BP-2776 or 3BP-4149).
Details: not given
The method, then:
In order to determine binding of compounds according to the present invention to CAIX-expressing cells, a FACS binding assay was established.
CAIX-expressing human HT-29 colorectal cancer cells (DSMZ, RRID: CVCL_0320) were cultured in McCoys's 5A modified medium (Biochrom, #F1015) including 10% fetal calf serum (FCS), 2 mM L-glutamine, 100 U/ml penicillin and 100 μg/mL streptomycin. Cells were detached with Accutase (Biolegend, #423201) and washed in FACS buffer (PBS including 1% FCS). Cells were diluted in FACS buffer to a final concentration of 500.000 cells per ml. 200 μL of the cell suspension were transferred to a u-shaped non-binding 96-well plate (Greiner) and cells were washed in ice-cold FACS buffer.
When biotinylated compounds were used an additional incubation step with 1 μg/mL APC-Streptavidin (Miltenyi; #130-106-791) in 50 μL FACS buffer for 30 minutes on ice was performed.
Cells were washed twice with ice-cold FACS buffer and analyzed in an Attune NxT flow cytometer (Thermo Fisher). Median fluorescence intensities (MFI) of the APC/Cy5-channel were calculated by Attune NxT software. MFI values were plotted against peptide concentration and four parameter logistic (4PL) curve fitting and EC50/pEC50 or IC50/pIC50 calculations were performed using ActivityBase software.
For orientation: A flow cytometer gives signals particle by particle.
`CC(C)C[C@@H]1NC(=O)[C@H](Cc2c[nH]c3ccccc23)NC(=O)[C@H](CC(=O)O)NC(=O)CNC(=O)[C@H](CCC(=O)O)NC(=O)[C@@H](NC(=O)[C@H](Cc2ccc(O)cc2)NC(=O)[C@@H](NC(=O)c2ccccc2)C(C)C)CSCc2cccc(c2)CSC[C@@H](C(N)=O)NC(=O)[C@H](CCC(N)=O)NC(=O)[C@H](Cc2c[nH]c3ccccc23)NC(=O)[C@H]([C@@H](C)O)NC1=O` [3BP-3108] (Bz-VYCEGDWLTWQC-NH2; linker 3-12 via mXylylene): the IC50 was under 10 nM.

The assay is the same for the next values; noted with them: FACS binding assay, HT-29 cells, competition with tracer 3BP-2776 (10 nM, biotin-labeled), 4° C., 1 hour; read-out: pIC50 category (activity) (converted).
As to `CC(C)C[C@@H]1NC(=O)[C@H](Cc2cccc(NC(=O)Cn3cc(C(=O)NO)nn3)c2)NC(=O)[C@H](CC(=O)O)NC(=O)[C@H]2CCCN2C(=O)[C@H](CCC(=O)O)NC(=O)[C@@H](NC(=O)[C@H](CCC(N)=O)NC(=O)CN2CCN(C(=O)CN3CCN(CC(=O)O)CCN(CC(=O)O)CCN(CC(=O)O)CC3)CC2)CSCc2cccc(c2)CSC[C@@H](C(N)=O)NC(=O)[C@H](CO)NC(=O)[C@H](Cc2c[nH]c3ccccc23)NC(=O)[C@H]([C@@H](C)O)NC1=O` [3BP-4847], the IC50 was 100 to 794 nM.

The same assay, now with this note: FACS binding assay, HT-29 cells, competition with tracer 3BP-4149 (3 nM, Cy5-labeled), 4° C., 1 hour; read-out: pIC50 category (activity) (converted).
Consider `CC(C)C[C@@H]1NC(=O)[C@H](Cc2ccc(NC(=O)C3(C#N)CC3)cc2)NC(=O)[C@H](CC(=O)O)NC(=O)[C@H]2CCCN2C(=O)[C@H](CCC(=O)O)NC(=O)[C@@H](NC(=O)[C@H](Cc2ccc(O)cc2)NC(=O)[C@@H](NC(=O)CN2CCC(NC(=O)CN3CCN(CC(=O)O)CCN(CC(=O)O)CCN(CC(=O)O)CC3)CC2)C(C)C)CSCc2cccc(c2)CSC[C@@H](C(N)=O)NC(=O)[C@H](CO)NC(=O)[C@H](Cc2c[nH]c3ccccc23)NC(=O)[C@H]([C@@H](C)O)NC1=O` [3BP-4357] ({DOTA}-[X2]VYCE[dP]D[Phe(4-NH2)](Cyclopropanecarbonyl(1-CN))LTWSC-NH2; linker 4-13 via mXylylene), for which the IC50 was 100 to 794 nM.
The same measure, in the same setting: in the case of `CC(C)C[C@@H]1NC(=O)[C@H](Cc2c[nH]c3ccccc23)NC(=O)[C@H](CCC(=O)NCc2ccc3cnccc3c2)NC(=O)[C@H]2CCCN2C(=O)[C@H](CCC(=O)O)NC(=O)[C@@H](NC(=O)[C@H](Cc2ccc(O)cc2)NC(=O)[C@@H](NC(=O)CN2CCC(NC(=O)CN3CCN(CC(=O)O)CCN(CC(=O)O)CCN(CC(=O)O)CC3)CC2)C(C)C)CSCc2cccc(c2)CSC[C@@H](C(N)=O)NC(=O)[C@H](CO)NC(=O)[C@H](Cc2c[nH]c3ccccc23)NC(=O)[C@H]([C@@H](C)O)NC1=O` [3BP-4328] ({DOTA}-[X2]VYCE[dP]E(X64)WLTWSC-NH2; linker 4-13 via mXylylene) it was 100 to 794 nM.
Same read-out and setting: in the case of `CC(C)C[C@@H]1NC(=O)[C@H](Cc2cccc(NC(=O)c3ccc4c(c3)S(=O)(=O)NC(=O)N4)c2)NC(=O)[C@H](CC(=O)O)NC(=O)[C@H]2CCCN2C(=O)[C@H](CCC(=O)O)NC(=O)[C@@H](NC(=O)[C@H](Cc2ccc(O)cc2)NC(=O)[C@@H](NC(=O)CN2CCC(NC(=O)CN3CCN(CC(=O)O)CCN(CC(=O)O)CCN(CC(=O)O)CC3)CC2)C(C)C)CSCc2cccc(c2)CSC[C@@H](C(N)=O)NC(=O)[C@H](CO)NC(=O)[C@H](Cc2c[nH]c3ccccc23)NC(=O)[C@H]([C@@H](C)O)NC1=O` [3BP-4415] ({DOTA}-[X2]VYCE[dP]D[X7](X55)LTWSC-NH2; linker 4-13 via mXylylene) it was 100 to 794 nM.

Still in this assay, the particulars now being: FACS competition on HT-29 cells, Tracer ID 3BP-2776 (10 nM, biotin-labeled), 4° C., 1 hour; read-out: pIC50 category (activity) (converted).
Regarding `CC(C)C[C@@H]1NC(=O)[C@H](Cc2c[nH]c3ccccc23)NC(=O)[C@H](CC(=O)O)NC(=O)[C@@H](C)NC(=O)[C@H](CCC(=O)O)NC(=O)[C@@H](NC(=O)[C@H](Cc2ccc(O)cc2)NC(=O)[C@@H](NC(=O)CCC(=O)NCCCOCCOCCOCCCNC(=O)CN2CCN(CC(=O)O)CCN(CC(=O)O)CCN(CC(=O)O)CC2)C(C)C)CSCc2cccc(c2)CSC[C@@H](C(N)=O)NC(=O)[C@H](CCC(N)=O)NC(=O)[C@H](Cc2c[nH]c3ccccc23)NC(=O)[C@H]([C@@H](C)O)NC1=O` [3BP-3270] ({X3-Suc}-VYCE[dA]DWLTWQC-NH2; linker 3-12 via mXylylene), the IC50 is under 10 nM.
Same read-out and setting: under `CC(=O)N[C@@H](Cc1ccc(O)cc1)C(=O)N[C@H]1CSCc2cccc(c2)CSC[C@@H](C(N)=O)NC(=O)[C@H](CO)NC(=O)[C@H](Cc2c[nH]c3ccccc23)NC(=O)[C@H]([C@@H](C)O)NC(=O)[C@H](CC(C)C)NC(=O)[C@H](Cc2c[nH]c3ccccc23)NC(=O)[C@H](CC(=O)O)NC(=O)[C@H]2CCCN2C(=O)[C@H](CCC(=O)O)NC1=O` [3BP-3729] (Ac-YCE[dP]DWLTWSC-NH2; linker 2-11 via mXylylene) stands under 10 nM; under `CC(=O)N[C@H]1CSCc2cccc(c2)CSC[C@@H](C(N)=O)NC(=O)[C@H](CCC(N)=O)NC(=O)[C@H](Cc2c[nH]c3ccccc23)NC(=O)[C@H]([C@@H](C)O)NC(=O)[C@H](CC(C)C)NC(=O)[C@H](Cc2c[nH]c3ccccc23)NC(=O)[C@H](CC(=O)O)NC(=O)CN(C)C(=O)[C@H](CCC(=O)O)NC1=O` [3BP-3325] (Ac-CE[Sar]DWLTWQC-NH2; linker 1-10 via mXylylene), 100 to 794 nM.
On the same count and under the same terms, in the case of `CC(C)[C@H](NC(=O)CN1CCC(NC(=O)CN2CCN(CC(=O)O)CCN(CC(=O)O)CCN(CC(=O)O)CC2)CC1)C(=O)N[C@@H](Cc1ccc(O)cc1)C(=O)N[C@H]1CSCc2cccc(c2)CSC[C@@H](C(N)=O)NC(=O)[C@H](CO)NC(=O)[C@H](Cc2c[nH]c3ccccc23)NC(=O)[C@H]([C@@H](C)O)NC(=O)C2(Cc3ccccc3C2)NC(=O)[C@H](Cc2c[nH]c3ccccc23)NC(=O)[C@H](CC(=O)O)NC(=O)[C@H]2CCCN2C(=O)[C@H](CCC(=O)O)NC1=O` [3BP-3586] ({DOTA}-[X2]VYCE[dP]DW[Aic]TWSC-NH2; linker 4-13 via mXylylene) it was under 10 nM; in that of `CC(C)CC(=O)N[C@@H](CCCNC(=N)N)C(=O)N[C@H]1CSCc2cccc(c2)CSC[C@@H](C(N)=O)NC(=O)[C@H](CCC(=O)NCCCNC(=O)COCCOCCNC(=O)CN2CCN(CC(=O)O)CCN(CC(=O)O)CCN(CC(=O)O)CC2)NC(=O)[C@H](Cc2c[nH]c3ccccc23)NC(=O)[C@H]([C@@H](C)O)NC(=O)[C@H](CC(C)C)NC(=O)[C@H](Cc2c[nH]c3ccccc23)NC(=O)[C@H](CC(=O)O)NC(=O)[C@H]2CCCN2C(=O)[C@H](CCC(=O)O)NC1=O` [3BP-3741] (Isovaleryl-RCE[dP]DWLTWE(NH(CH2)3NH(O2Oc(DOTA)))C-NH2; linker 2-11 via mXylylene), 10 to 79.4 nM; in that of `CC(=O)N[C@H](C(=O)N[C@@H](Cc1ccc(O)cc1)C(=O)N[C@H]1CSCc2cccc(c2)CSC[C@@H](C(N)=O)NC(=O)[C@H](CCC(N)=O)NC(=O)[C@H](Cc2c[nH]c3ccccc23)NC(=O)[C@H]([C@@H](C)O)NC(=O)[C@H](CC(C)C)NC(=O)[C@H](Cc2c[nH]c3ccc(O)cc23)NC(=O)[C@H](CC(=O)O)NC(=O)CN(C)C(=O)[C@H](CCC(=O)O)NC1=O)C(C)C` [3BP-3310] (Ac-VYCE[Sar]D[Trp(5-OH)]LTWQC-NH2; linker 3-12 via mXylylene), 100 to 794 nM.
The same measure, in the same setting: under `CC(=O)N[C@H](C(=O)N[C@@H](Cc1ccc(O)cc1)C(=O)N[C@H]1CSCc2cccc(c2)CSC[C@@H](C(N)=O)NC(=O)[C@H](CO)NC(=O)[C@H](Cc2c[nH]c3ccccc23)NC(=O)[C@H]([C@@H](C)O)NC(=O)[C@H](CC(C)C)NC(=O)[C@H](Cc2c[nH]c3ccccc23)NC(=O)[C@H](CC(=O)O)NC(=O)[C@H]2CCCN2C(=O)[C@H](CCC(=O)O)NC1=O)[C@@H](C)O` [3BP-3567] (Ac-TYCE[dP]DWLTWSC-NH2; linker 3-12 via mXylylene) stands under 10 nM.
As for `CC(=O)N[C@H](C(=O)N[C@@H](CCCNC(=N)N)C(=O)N[C@H]1CSCc2cccc(c2)CSC[C@@H](C(N)=O)NC(=O)[C@H](CO)NC(=O)[C@H](Cc2c[nH]c3ccccc23)NC(=O)[C@H]([C@@H](C)O)NC(=O)[C@H](CC(C)C)NC(=O)[C@H](Cc2c[nH]c3ccccc23)NC(=O)[C@H](CC(=O)O)NC(=O)[C@H]2CCCN2C(=O)[C@H](CCC(=O)O)NC1=O)C(C)C` [3BP-3588] (Ac-VRCE[dP]DWLTWSC-NH2; linker 3-12 via mXylylene), the IC50 is under 10 nM.
On the same count and under the same terms, under `CC(C)[C@H](NC(=O)CN1CCC(NC(=O)CN2CCN(CC(=O)O)CCN(CC(=O)O)CCN(CC(=O)O)CC2)CC1)C(=O)N[C@@H](Cc1ccc(O)cc1)C(=O)N[C@H]1CSCc2cccc(c2)CSC[C@@H](C(N)=O)NC(=O)[C@H](CO)NC(=O)[C@H](Cc2c[nH]c3ccccc23)NC(=O)[C@H]([C@@H](C)O)NC(=O)C2(CCOCC2)NC(=O)[C@H](Cc2c[nH]c3ccccc23)NC(=O)[C@H](CC(=O)O)NC(=O)[C@H]2CCCN2C(=O)[C@H](CCC(=O)O)NC1=O` [3BP-3585] ({DOTA}-[X2]VYCE[dP]DW[Thp]TWSC-NH2; linker 4-13 via mXylylene) stands under 10 nM; under `CC(=O)N[C@H](C(=O)N[C@@H](Cc1ccc(O)cc1)C(=O)N[C@H]1CSCc2cccc(c2)CSC[C@@H](C(N)=O)NC(=O)[C@H](CCC(N)=O)NC(=O)[C@H](Cc2c[nH]c3ccccc23)NC(=O)[C@@H](C)NC(=O)[C@H](CC(C)C)NC(=O)[C@H](Cc2c[nH]c3ccccc23)NC(=O)[C@H](CC(=O)O)NC(=O)CN(C)C(=O)[C@H](CCC(=O)O)NC1=O)C(C)C` [3BP-3309] (Ac-VYCE[Sar]DWL[dA]WQC-NH2; linker 3-12 via mXylylene), 100 to 794 nM.
